Source: US7560591B2, “Benzamidine derivatives having anti-inflammatory and immunosuppressive activity” (Rotta Research Laboratorium S.p.A., priority 2001, dated 2009)
Read-outs that look alike come from different tables or passages of the source.

System: extravasation in the ears of mice
Assay: Extravasation (Evans Blu) induced by phlogogenic agents in the ears of mice
Format: in vivo
Details: for % inhibition of extravasation, PAF: 1 h; for % inhibition of extravasation, Zymosan: 2 h; for % inhibition of extravasation, Arachidonic Acid / % inhibition of extravasation, Bradykinin / % inhibition of extravasation, Histamine: 30 min; for ED50: OS, mouse ear
Protocol: b) Some of the compounds of the invention, such as compounds I-4, I-11 and I-31, were evaluated in vivo in a series of experimental extravasation models in which 5 μl of the preselected phlogogenic agent dissolved in physiological solution was injected intradermally into the ears of mice as described by Erdo et al., with slight modifications [Agents and Actions 39, 137-142 (1993)].
The products under test were administered orally 1 hour before the challenge and, 30 minutes before the challenge, the dye Evans Blu was injected intravenously in a dose of 100 mg/kg. The animals were killed at a time predetermined according to the test, 30 min.—2 hours after the challenge. The extravasation was evaluated by determining the quantity of dye present in the ear, extracted after homogenisation of the tissue in 2 ml of formamide and incubation at 50° C. for 2 hours. After centrifuging, the amount of dye was determined by measuring the absorption at 620 nm. The maximum % effect (% MPE) was calculated by the following formula:
[formula] in which EV is the mean absorption observed in the group of animals treated solely with the phlogogenic agent, ED is the group treated with the phlogogenic agent and the drug, and EB is the base value, that is, the value for the animals injected with physiological solution alone.
The phlogogenic agents used were:
Arachidonic acid (dissolved in EtOH); (1 mg/mouse; killed+30 min); histamine (3 nmoli/mouse; killed+30 min); PAF (30 pmoli/mouse; killed+60 min); Zymosan (10 μg/mouse; killed+120 min); bradykinin (0.6 nmoli/mouse; killed+30 min).

Question: Which results are given for `CCCCCNC(=S)Nc1ccc(NC(C)=N)cc1` [Compound I-4, N-[4-(N-acetamidine)phenyl]-N′-pentyl Thiourea]?
Answer: % inhibition of extravasation, PAF (2.5 mg/kg OS, PAF): 41.9%; % inhibition of extravasation, Zymosan (2.5 mg/kg OS, Zymosan): 40.0%; % inhibition of extravasation, Arachidonic Acid (5 mg/kg OS): 37.8%; % inhibition of extravasation, Bradykinin (5 mg/kg OS): 30.1%; % inhibition of extravasation, Histamine (5 mg/kg OS): 17.8%; % inhibition of extravasation, PAF (5 mg/kg OS, PAF): 49.9%; % inhibition of extravasation, Zymosan (5 mg/kg OS, Zymosan): 66.6%; % inhibition of extravasation, Arachidonic Acid (10 mg/kg OS): 40.0%; % inhibition of extravasation, Bradykinin (10 mg/kg OS): 30.7%; % inhibition of extravasation, Histamine (10 mg/kg OS): 27.7%; % inhibition of extravasation, PAF (10 mg/kg OS, PAF): 55.1%; % inhibition of extravasation, Zymosan (10 mg/kg OS, Zymosan): 65.8%; % inhibition of extravasation, Arachidonic Acid (20 mg/kg OS): 52.6%; % inhibition of extravasation, Bradykinin (20 mg/kg OS): 49.1%; % inhibition of extravasation, Histamine (20 mg/kg OS): 38.8%; % inhibition of extravasation, PAF (20 mg/kg OS, PAF): 56.4%; % inhibition of extravasation, Zymosan (20 mg/kg OS, Zymosan): 83.9%; % inhibition of extravasation, Arachidonic Acid (40 mg/kg OS): 55.5%; % inhibition of extravasation, Bradykinin (40 mg/kg OS): 51.3%; % inhibition of extravasation, Histamine (40 mg/kg OS): 52.5%; % inhibition of extravasation, PAF (40 mg/kg OS, PAF): 66.2%; % inhibition of extravasation, Zymosan (40 mg/kg OS, Zymosan): 89.8%; % inhibition of extravasation, Zymosan (80 mg/kg OS, Zymosan): 95.5%; inhibition at 5 mg/kg (Mus musculus, 5 mg/kg, models other than Zymosan, read-out: mean inhibitory effect in the other extravasation models): ~35%; ED50 (PAF, read-out: ED50, extravasation induced by PAF): 6.1 mg/kg; ED50 (Zymosan, read-out: ED50, extravasation induced by Zymosan): 3.1 mg/kg; ED50 (arachidonic acid, read-out: ED50, extravasation induced by AA (arachidonic acid)): 20.5 mg/kg; ED50 (bradykinin, read-out: ED50, extravasation induced by Bradykinin): 32.6 mg/kg; ED50 (histamine, read-out: ED50, extravasation induced by Histamine): 37 mg/kg
